Reference: patent publication US20130059783A1, “COMPOSITIONS AND METHODS FOR EXPANDING BFU-E CELLS” (priority 2010, published 2013)

How the values were obtained:
Type in all cases: cell-based, mouse
[1] = system: BFU-E cells; test: Serum free erythroid liquid expansion (SFELE) progenitor growth assay of sorted BFU-E cells; settings: for Total cell expansion from 1000 BFU-E cells: CD71 10% low BFU-E cells, SFELE medium
Method: (§1) FIGS. 1A-1F. […] Error bars show one standard deviation. […] Error bars show one standard deviation. […] Shown is the fraction of c-kit+ cells after 72 hours. […] Cell numbers in each clone were estimated under the microscope on Day 8.
(§2) FIGS. 3A-3B. […] The experimental protocol was similar to that used in FIGS. 1A and B except that the CFU-E and BFU-E cells were purer (CD71 and CD24a^20% high and CD71 and CD24a^10% low, respectively). […] (A) Proliferation of sorted CFU-E cells. […] Error bars show one standard deviation. (B) Proliferation of sorted BFU-E cells. […] Error bars show one standard deviation.
FIG. 4. […] Cells were counted from day 4 until the day cell counts dropped.
(A) The total number of cells formed from 1000 BFU-E cells at different time points. […] Standard deviation between four separate biological experiments is shown in parenthesis (n/d=not determined).
(§3) We developed a modified version of the serum free erythroid liquid expansion culture (SFELE) medium described by Dolzning et al. (Dolznig et al., 2006).

[2] = system: CFU-E cells; test: SFELE progenitor growth assay of sorted CFU-E cells; settings: 100 nM Dex
Method: as §1, §2, §3

[3] = system: fetal liver erythroid progenitor (FLEP) cells; test: Colony forming assays of magnetically depleted fetal liver cells (Table S1)
Method: The negatively enriched cell populations were subjected to colony forming assays under two different conditions. […] CFU-E colonies were counted 3 days later. […] These cells were cultured 8-9 days before late BFU-E, early BFU-E, CFU-G/M/Mk (granulocyte, monocyte, megakaryocyte), and CFU-GEMM (granulocyte, erythrocyte, monocyte, megakaryocyte) colonies were scored. BFU-Es consisting of a cluster of only 5-20 CFU-Es were scored as late, while larger BFU-Es were scored as early. 2,7-fluorenediamine was used to stain hemoglobin-containing colonies in the plates. […] Standard deviation between experiments is shown in parenthesis.
The first step towards enrichment of BFU-E and CFU-E cells was to remove more mature blood cells from single cell suspensions of fetal livers by magnetic column depletion. We stained fetal liver cells with a panel of biotin labeled anti-lineage (Lin) antibodies (Ter119, B220, Mac-1, CD3 and Gr-1), followed by anti-biotin tetramer and magnetic colloid labeling. All positive cells were depleted using magnetic columns.
(§4) Colonies were scored after 3 days. […] The number of hemoglobinized early BFU-E and late BFU-E colonies was determined after 8-9 days following staining with 2,7-Diaminofluorene (Sigma Chemical, St. Louis, Mo.).

[4] = system: BFU-E cells; test: Colony forming assays of sorted BFU-E fractions (Table S2)
Text: Separation of BFU-E and CFU-E cells by expression of CD71, CD24a or both CD71 and CD24a. C-kit positive BFU-E and CFU-E cells were sorted from FLEP cells based on expression of CD71, CD24a or both CD71 and CD24a. In all experiments the BFU-E fraction was the subset of c-kit^positive FLEP cells with the 10% lowest expression of CD71 and/or CD24a, while the CFU-E fraction was the subset with 20% highest expression of CD71 and/or CD24a. Sorted BFU-E and CFU-E populations were subjected to colony forming assays under two different conditions. […] The number of CFU-E colonies (±standard deviation) is shown. The sorted “BFU-E” populations mostly formed small CFU-E clusters rather than single CFU-E colonies in these assays. These CFU-E clusters are formed by precursors to CFU-Es and were scored separately as multi-CFU-Es. The number of “multi-CFU-Es” is not shown since these cells likely represent the same cells as those forming small BFU-E colonies.
The potential of the sorted cells to form large BFU-E, small BFU-E, CFU-G/M/Mk, and CFU-GEMM colonies (±standard deviation) was determined by a second assay in methyl cellulose containing 10U Epo, 20 nM IL-3, 20 nM IL-6 and 50 nM SCF per mL, and was scored at day 8-9. […] To determine the effect of DMOG, colony assays of sorted BFU-E (CD71 and CD24a^10% low) cells were also performed in the presence of 333 μM DMOG. In agreement with the finding that DMOG enhances BFU-E self-renewal BFU-E colonies were larger with a more immature appearance in the presence of DMOG and Dex. Therefore, in the presence of DMOG and Dex most BFU-E colonies were scored as “large BFU-Es.”
No GEMM colonies were formed (Table S2).
as §4

[5] = dose response curves in the absence of DMOG
[6] = Lin− fetal liver cells, EPO, SCF, IL-3, IL-6, 100 nM Dex
[7] = Lin−, CD32/16− cells, 100 nM Dex
[8] = Lin−, CD32/16−, Sca-1− cells, 100 nM Dex
[9] = Lin−, CD32/16−, Sca-1−, CD41− cells, 100 nM Dex
[10] = Lin−, CD32/16−, Sca-1−, CD41−, CD34− (FLEP cells), 100 nM Dex
[11] = CD24a 10% low cells, 100 nM Dex
[12] = CD71/CD24a 10% low cells, 100 nM Dex and/or 333 μM DMOG
[13] = purified CD71 10% low cells, with Dex

C[C@@H]1C[C@H]2[C@@H]3CCC4=CC(=O)C=C[C@]4(C)[C@@]3(F)[C@@H](O)C[C@]2(C)[C@@]1(O)C(=O)CO [Dex, dexamethasone]
Increase of total number of cells after the first three days ([1]; CD24 and CD71 10% low BFU-E cells, 100 nM Dex and/or 333 μM DMOG): ~20 fold
Total cell expansion from 1000 "BFU-E" cells, liquid culture ([1]; CD24 and CD71 10% low BFU-E cells, SFELE, 100 nM Dex and/or 333 μM DMOG, day 1): 3,900
Total cell expansion from 1000 "BFU-E" cells, liquid culture ([1]; CD24 and CD71 10% low BFU-E cells, SFELE, 100 nM Dex and/or 333 μM DMOG, day 2): 30,000
Total cell expansion from 1000 "BFU-E" cells, liquid culture ([1]; CD24 and CD71 10% low BFU-E cells, SFELE, 100 nM Dex and/or 333 μM DMOG, day 3): 200,000
Total cell expansion from 1000 "BFU-E" cells, liquid culture ([1]; CD24 and CD71 10% low BFU-E cells, SFELE, 100 nM Dex and/or 333 μM DMOG, day 4): 1,200,000
Total cell expansion from 1000 "BFU-E" cells, liquid culture ([1]; CD24 and CD71 10% low BFU-E cells, SFELE, 100 nM Dex and/or 333 μM DMOG, day 5): 3,500,000
Total cell expansion from 1000 "BFU-E" cells, liquid culture ([1]; CD24 and CD71 10% low BFU-E cells, SFELE, 100 nM Dex and/or 333 μM DMOG, day 6): 7,200,000
Total cell expansion from 1000 "BFU-E" cells, liquid culture ([1]; CD24 and CD71 10% low BFU-E cells, SFELE, 100 nM Dex and/or 333 μM DMOG, day 7): 14,000,000
Total cell expansion from 1000 "BFU-E" cells, liquid culture ([1]; CD24 and CD71 10% low BFU-E cells, SFELE, 100 nM Dex and/or 333 μM DMOG, day 8): 20,000,000
Total cell expansion from 1000 "BFU-E" cells, liquid culture ([1]; CD24 and CD71 10% low BFU-E cells, SFELE, 100 nM Dex and/or 333 μM DMOG, day 9): 25,000,000
Total cell expansion from 1000 "BFU-E" cells, liquid culture ([1]; CD24 and CD71 10% low BFU-E cells, SFELE, 100 nM Dex and/or 333 μM DMOG, day 10): 25,000,000
Total cell expansion from 1000 "BFU-E" cells, liquid culture ([1]; CD24 and CD71 10% low BFU-E cells, SFELE, 100 nM Dex and/or 333 μM DMOG, day 11): 20,000,000
Total cell expansion from 1000 BFU-E cells ([1]; 100 nM Dex, 24 h): 5,367 (±1,626)
Total cell expansion from 1000 BFU-E cells ([1]; 100 nM Dex, 48 h): 50,013 (±18,160)
Total cell expansion from 1000 BFU-E cells ([1]; 100 nM Dex, 72 h): 297,340 (±114,540)
Total cell expansion from 1000 BFU-E cells ([1]; 100 nM Dex, 120 h): 2,484,148 (±988,022)
Expansion of BFU-E cells, peak ([1]; CD71 10% low cells, SFELE, 100 nM Dex, peak at day 8): 8,800 fold
Increase of proliferation of sorted BFU-E cells ([1]; CD71 and CD24a 10% low cells, SFELE, 100 nM Dex and/or 333 μM DMOG, versus no additions): 42 fold
Average number of divisions of each BFU-E cell ([1]; SFELE, 100 nM Dex): 13 times
Cell number per original BFU-E cell ([1]; SFELE, 100 nM Dex): 8,800 cells per original BFU-E cell
Dex concentrations at which a clear effect on CFU-E formation is seen [1, 5]: > 2 nM
Dex concentrations giving maximum effect on CFU-E formation [1, 5]: above 10 nM
Dex concentration that supports maximal stimulation of BFU-E proliferation ([1]; dose-response, FIG. 1 C and D): 10 nM
Dex concentrations with little stimulatory effect on BFU-E proliferation ([1]; dose-response, FIG. 1 C and D): below 1 nM
Average number of erythroblasts formed from each CFU-E cell [2]: 28
Expansion of sorted CFU-E cells (production of erythroblasts), peak ([2]; CD71 20% high cells, peak at day 3): 28 fold
CFU-G/M/Meg colonies, scored day 8-9 [3, 6]: 25 (±5) colonies per 1000 plated cells
GEMM colonies, scored day 8-9 [3, 6]: 7 (±4) colonies per 1000 plated cells
early BFU-E colonies, scored day 8-9 [3, 6]: 39 (±12) colonies per 1000 plated cells
late BFU-E colonies, scored day 8-9 [3, 6]: 53 (±13) colonies per 1000 plated cells
CFU-E colonies, scored day 3 ([3]; Lin− fetal liver cells, methylcellulose 10U EPO/mL, 100 nM Dex): 472 (±79) colonies per 1000 plated cells
CFU-G/M/Meg colonies, scored day 8-9 [3, 7]: 17 (±10) colonies per 1000 plated cells
GEMM colonies, scored day 8-9 [3, 7]: 5 (±2) colonies per 1000 plated cells
early BFU-E colonies, scored day 8-9 [3, 7]: 37 (±12) colonies per 1000 plated cells
late BFU-E colonies, scored day 8-9 [3, 7]: 69 (±14) colonies per 1000 plated cells
CFU-E colonies, scored day 3 ([3]; Lin−, CD32/16− fetal liver cells, 10U EPO/mL, 100 nM Dex): 560 (±245) colonies per 1000 plated cells
CFU-G/M/Meg colonies, scored day 8-9 [3, 8]: 7 (±3) colonies per 1000 plated cells
GEMM colonies, scored day 8-9 [3, 8]: 0.2 (±0.3) colonies per 1000 plated cells
early BFU-E colonies, scored day 8-9 [3, 8]: 24 (±5) colonies per 1000 plated cells
late BFU-E colonies, scored day 8-9 [3, 8]: 110 (±10) colonies per 1000 plated cells
CFU-G/M/Meg colonies, scored day 8-9 [3, 9]: 9 (±12) colonies per 1000 plated cells
GEMM colonies, scored day 8-9 [3, 9]: 0.3 (±0.4) colonies per 1000 plated cells
early BFU-E colonies, scored day 8-9 [3, 9]: 10 (±4) colonies per 1000 plated cells
late BFU-E colonies, scored day 8-9 [3, 9]: 142 (±77) colonies per 1000 plated cells
CFU-G/M/Meg colonies, scored day 8-9 [3, 10]: 4 (±6) colonies per 1000 plated cells
GEMM colonies, scored day 8-9 [3, 10]: 0.3 (±0.5) colonies per 1000 plated cells
early BFU-E colonies, scored day 8-9 [3, 10]: 23 (±17) colonies per 1000 plated cells
late BFU-E colonies, scored day 8-9 [3, 10]: 141 (±84) colonies per 1000 plated cells
CFU-E colonies [4, 11]: 96 (±23) colonies per 1000 plated cells
CFU-G/M/Meg colonies [4, 11]: 19 (±6) colonies per 1000 plated cells
GEMM colonies [4, 11]: 0.8 (±2) colonies per 1000 plated cells
large BFU-E colonies [4, 11]: 178 (±28) colonies per 1000 plated cells
small BFU-E colonies [4, 11]: 336 (±27) colonies per 1000 plated cells
CFU-E colonies ([4]; CD71 10% low cells, 100 nM Dex): 66 (±28) colonies per 1000 plated cells
CFU-G/M/Meg colonies ([4]; CD71 10% low cells, 100 nM Dex): 20 (±21) colonies per 1000 plated cells
GEMM colonies ([4]; CD71 10% low cells, 100 nM Dex): 0 colonies per 1000 plated cells
large BFU-E colonies ([4]; CD71 10% low cells, 100 nM Dex): 222 (±84) colonies per 1000 plated cells
small BFU-E colonies ([4]; CD71 10% low cells, 100 nM Dex): 289 (±85) colonies per 1000 plated cells
CFU-E colonies [4, 12]: 33 (±10) colonies per 1000 plated cells
CFU-G/M/Meg colonies [4, 12]: 7 (±2) colonies per 1000 plated cells
GEMM colonies [4, 12]: 0 colonies per 1000 plated cells
large BFU-E colonies [4, 12]: 412 (±23) colonies per 1000 plated cells
small BFU-E colonies [4, 12]: 251 (±40) colonies per 1000 plated cells
Cells forming CFU-E colonies [4, 13]: 6.6%
Cells forming CFU-G/M/Meg colonies [4, 13]: 2.0%
Cells forming early BFU-Es [4, 13]: 22%
Cells forming late BFU-E colonies [4, 13]: 29%
